This passage reports IC50 results from patent publication US20110182850A1, “ORGANIC COMPOUNDS AND THEIR USES” (priority 2009, published 2011).

pIC50: −log10 of the molar value.

In one test the target is T1, HCV NS3-4A serine protease (full-length NS3-4A protein, genotype 1a, strain HCV-1) (Hepatitis C virus genotype 1a, UniProt P26664).
T1 construct: using the full-length NS3-4A protein (genotype 1a, strain HCV-1)
T1 sequence (P26664 1658-1711): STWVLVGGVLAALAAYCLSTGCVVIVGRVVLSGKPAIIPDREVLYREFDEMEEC
T1 sequence (P26664 1027-1657): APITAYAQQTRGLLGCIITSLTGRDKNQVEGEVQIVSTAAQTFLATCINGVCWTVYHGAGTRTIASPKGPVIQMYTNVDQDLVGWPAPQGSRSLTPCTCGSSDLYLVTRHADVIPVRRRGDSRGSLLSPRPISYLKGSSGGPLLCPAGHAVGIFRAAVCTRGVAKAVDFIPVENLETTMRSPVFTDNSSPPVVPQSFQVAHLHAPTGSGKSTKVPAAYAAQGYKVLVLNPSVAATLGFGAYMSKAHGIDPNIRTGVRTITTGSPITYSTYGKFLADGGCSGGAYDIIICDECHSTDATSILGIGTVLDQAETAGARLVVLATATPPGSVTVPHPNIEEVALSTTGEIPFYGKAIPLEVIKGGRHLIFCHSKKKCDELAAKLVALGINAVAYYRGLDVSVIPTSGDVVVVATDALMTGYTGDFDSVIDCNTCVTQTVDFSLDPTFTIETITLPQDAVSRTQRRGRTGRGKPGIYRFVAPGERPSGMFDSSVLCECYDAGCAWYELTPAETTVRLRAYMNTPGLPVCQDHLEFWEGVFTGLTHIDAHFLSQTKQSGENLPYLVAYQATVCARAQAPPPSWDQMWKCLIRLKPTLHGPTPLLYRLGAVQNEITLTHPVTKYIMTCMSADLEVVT
Briefly: HCV NS3-4A protease assay. It counts as biochemical. Conditions: Protease IC50. As to the method:
The inhibitory activity of certain compounds of Table A against HCV NS3-4A serine protease is determined in a homogenous assay using the full-length NS3-4A protein (genotype 1a, strain HCV-1) and a commercially available internally-quenched fluorogenic peptide substrate as described by Taliani, M., et al. 1996 Anal. Biochem. 240:60-67, which is incorporated by reference in its entirety.
A word on the pIC50: it is −log10 of the IC50, conventionally taken in molar units. In turn, `C=C[C@@H]1C[C@]1(NC(=O)[C@@H]1C[C@@]2(CN1C(=O)[C@@H](NC(=O)[C@@H](NC(=O)N1CCN(C)CC1)C(C)(C)C)C(C)(C)C)C(C)(C)C21CCC1)C(=O)NS(=O)(=O)C1CC1` [Compound 55, (5R,8S)-N-{(1R,2S)-1-[(cyclopropylsulfonyl)carba-moyl]-2-vinylcyclopropyl}-7-[(2S)-2-{[(2S)-3,3-dimethyl-2-{[(4-methylpiperazin-1-yl)carbonyl]amino}butanoyl]amino}-3,3-dimethylbutanoyl]-10,10-dimethyl-7-azadispiro[3.0.4.1]decane-8-carboxamide] had a pIC50 of 7.60.

In turn, `C=C[C@@H]1C[C@]1(NC(=O)[C@@H]1C[C@@]2(CN1C(=O)[C@@H](NC(=O)[C@@H](NC(=O)N(C)C)C(C)(C)C)C(C)(C)C)C(C)(C)C21CCC1)C(=O)NS(=O)(=O)C1CC1` [Compound 56, (5R,8S)-N-{(1R,2S)-1-[(cyclopropylsulfonyl)carba-moyl]-2-vinylcyclopropyl}-7-[(2S)-2-({(2S)-2-[(dimethylcarbamoyl)amino]-3,3-dimethylbutanoyl}amino)-3,3-dimethylbutanoyl]-10,10-dimethyl-7-azadispiro[3.0.4.1]decane-8-carboxamide] showed a pIC50 of 7.30.

On to `C=C[C@@H]1C[C@]1(NC(=O)[C@@H]1C[C@@]2(CN1C(=O)[C@@H](NC(=O)[C@@H](NC(=O)[C@@H]1CCCCN1C(C)C)C1CCCCC1)C(C)(C)C)C(C)(C)C21CCC1)C(=O)NS(=O)(=O)c1ccccc1` [Compound 61, (5R,8S)-7-[(2S)-2-{[(2S)-2-cyclohexyl-2-({[(2S)-1-isopropylpiperidin-2-yl]carbonyl}amino)acetyl]amino}-3,3-dimethylbutanoyl]-10,10-dimethyl-N-{(1R,2S)-1-[(phenylsulfonyl)carbamoyl]-2-vinylcyclopropyl}-7-azadispiro[3.0.4.1]decane-8-carboxamide], for which the pIC50 was 8.82.

Turning to `C=C[C@@H]1C[C@]1(NC(=O)[C@@H]1C[C@@]2(CN1C(=O)[C@@H](NC(=O)[C@@H](NC(=O)[C@@H]1CCCN1C(C)C)C1CCCCC1)C(C)(C)C)C(C)(C)C21CCC1)C(=O)NS(=O)(=O)c1ccccc1` [Compound 62, (5R,8S)-7-[(2S)-2-{[(2S)-2-cyclohexyl-2-({[(2S)-1-isopropylpyrrolidin-2-yl]carbonyl}amino)acetyl]amino}-3,3-dimethylbutanoyl]-10,10-dimethyl-N-{(1R,2S)-1-[(phenylsulfonyl)carbamoyl]-2-vinylcyclopropyl}-7-azadispiro[3.0.4.1]decane-8-carboxamide], the pIC50 is 9.15.

Compound `C=C[C@@H]1C[C@]1(NC(=O)[C@@H]1C[C@@]2(CN1C(=O)[C@@H](NC(=O)[C@@H](NC(=O)c1cnccn1)C1CCCCC1)C(C)(C)C)C(C)(C)C21CCC1)C(=O)NS(=O)(=O)C1(C)CC1` [Compound 64, (5R,8S)-7-[(2S)-2-({(2S)-2-cyclohexyl-2-[(pyrazin-2-ylcarbonyl)amino]acetyl}amino)-3,3-dimethylbutanoyl]-10,10-dimethyl-N-[(1R,2S)-1-{[(1-methylcyclopropyl)sulfonyl]carbamoyl}-2-vinylcyclopropyl]-7-azadispiro[3.0.4.1]decane-8-carboxamide] showed a pIC50 of 8.82.

The compound `C=C[C@@H]1C[C@]1(NC(=O)[C@@H]1C[C@@]2(CN1C(=O)[C@@H](NC(=O)[C@@H](NC(=O)[C@@H]1CCCCN1C(C)C)C1CCCCC1)C(C)(C)C)C(C)(C)C21CCC1)C(=O)NS(=O)(=O)C1(CC)CC1` [Compound 66, (5R,8S)-7-[(2S)-2-{[(2S)-2-cyclohexyl-2-({[(2S)-1-isopropylpiperidin-2-yl]carbonyl}amino)acetyl]amino}-3,3-dimethylbutanoyl]-N-[(1R,2S)-1-{[(1-ethylcyclopropyl)sulfonyl]carbamoyl}-2-vinylcyclopropyl]-10,10-dimethyl-7-azadispiro[3.0.4.1]decane-8-carboxamide] showed a pIC50 of 8.74.

`C=C[C@@H]1C[C@]1(NC(=O)[C@@H]1C[C@@]2(CN1C(=O)[C@@H](NC(=O)[C@@H](NC(=O)[C@@H]1CCCN1C(C)C)C1CCCCC1)C(C)(C)C)C(C)(C)C21CCC1)C(=O)NS(=O)(=O)C1(C)CC1` [Compound 72, (5R,8S)-7-[(2S)-2-{[(2S)-2-cyclohexyl-2-({[(2S)-1-isopropylpyrrolidin-2-yl]carbonyl}amino)acetyl]amino}-3,3-dimethylbutanoyl]-10,10-dimethyl-N-[(1R,2S)-1-{[(1-methylcyclopropyl)sulfonyl]carbamoyl}-2-vinylcyclopropyl]-7-azadispiro[3.0.4.1]decane-8-carboxamide] had a pIC50 of 8.70.

As for `C=C[C@@H]1C[C@]1(NC(=O)[C@@H]1C[C@@]2(CN1C(=O)[C@@H](NC(=O)[C@@H](NC(=O)[C@@H]1CCCCN1CC)C1CCCCC1)C(C)(C)C)C(C)(C)C21CCC1)C(=O)NS(=O)(=O)C1(C)CC1` [Compound 73, (5R,8S)-7-[(2S)-2-{[(2S)-2-cyclohexyl-2-({[(2S)-1-ethylpiperidin-2-yl]carbonyl}amino)acetyl]amino}-3,3-dimethylbutanoyl]-10,10-dimethyl-N-[(1R,2S)-1-{[(1-methylcyclopropyl)sulfonyl]carbamoyl}-2-vinylcyclopropyl]-7-azadispiro[3.0.4.1]decane-8-carboxamide], the pIC50 is 8.52.

On to `C=C[C@@H]1C[C@]1(NC(=O)[C@@H]1C[C@@]2(CN1C(=O)[C@@H](NC(=O)[C@@H](NC(=O)[C@@H]1CCCCN1C(C)C)C1CCCCC1)C(C)(C)C)C(C)(C)C21CCC1)C(=O)NS(=O)(=O)C(F)(F)F` [Compound 78, (5R,8S)-7-[(2S)-2-{[(2S)-2-cyclohexyl-2-({[(2S)-1-isopropylpiperidin-2-yl]carbonyl}amino)acetyl]amino}-3,3-dimethylbutanoyl]-10,10-dimethyl-N-[(1R,2S)-1-{[(trifluoromethyl)sulfonyl]carbamoyl}-2-vinylcyclopropyl]-7-azadispiro[3.0.4.1]decane-8-carboxamide], for which the pIC50 is 8.60.

On to `C=C[C@@H]1C[C@]1(NC(=O)[C@@H]1C[C@@]2(CN1C(=O)[C@@H](NC(=O)[C@@H](NC(=O)[C@@H]1CCCCN1CC)C1CCCCC1)C(C)(C)C)C(C)(C)C21CCC1)C(=O)NS(=O)(=O)C(F)(F)F` [Compound 79, (5R,8S)-7-[(2S)-2-{[(2S)-2-cyclohexyl-2-({[(2S)-1-ethylpiperidin-2-yl]carbonyl}amino)acetyl]amino}-3,3-dimethylbutanoyl]-10,10-dimethyl-N-[(1R,2S)-1-{[(trifluoromethyl)sulfonyl]carbamoyl}-2-vinylcyclopropyl]-7-azadispiro[3.0.4.1]decane-8-carboxamide], for which the pIC50 was 8.70.

As to `C=C[C@@H]1C[C@]1(NC(=O)[C@@H]1C[C@@]2(CN1C(=O)[C@@H](NC(=O)[C@@H](NC(=O)[C@@H]1CCCCN1C(C)C)C1CCCCC1)C(C)(C)C)C(C)(C)C21CCC1)C(=O)NS(=O)(=O)C1CCCC1` [Compound 80, (5R,8S)-7-[(2S)-2-{[(2S)-2-cyclohexyl-2-({[(2S)-1-isopropylpiperidin-2-yl]carbonyl}amino)acetyl]amino}-3,3-dimethylbutanoyl]-N-{(1R,2S)-1-[(cyclopentylsulfonyl)carbamoyl]-2-vinylcyclopropyl}-10,10-dimethyl-7-azadispiro[3.0.4.1]decane-8-carboxamide], the pIC50 is 8.00.

The test is the same for the next values; noted with them: read-out: Protease IC50.
`C=C[C@@H]1C[C@]1(NC(=O)[C@@H]1C[C@@]2(CN1C(=O)[C@@H](NC(=O)[C@@H](NS(=O)(=O)C(C)C)C(C)(C)C)C(C)(C)C)C(C)(C)C21CCC1)C(=O)NS(=O)(=O)C1CC1` [Compound 58, (5R,8S)-N-{(1R,2S)-1-[(cyclopropylsulfonyl)carba-moyl]-2-vinylcyclopropyl}-7-[(2S)-2-({(2S)-2-[(isopropylsulfonyl)amino]-3,3-dimethylbutanoyl}amino)-3,3-dimethylbutanoyl]-10,10-dimethyl-7-azadispiro[3.0.4.1]decane-8-carboxamide]: the pIC50 is 6.40.

As to `C=C[C@@H]1C[C@]1(NC(=O)[C@@H]1C[C@@]2(CN1C(=O)[C@@H](NC(=O)c1coc(CN(C)C)n1)C(C)(C)C)C(C)(C)C21CCC1)C(=O)NS(=O)(=O)C1CC1` [Compound 59, (5R,8S)-N-{(1R,2S)-1-[(cyclopropylsulfonyl)carba-moyl]-2-vinylcyclopropyl}-7-{(2S)-2-[({2-[(dimethylamino)methyl]-1,3-oxazol-4-yl}carbonyl)amino]-3,3-dimethylbutanoyl}-10,10-dimethyl-7-azadispiro[3.0.4.1]decane-8-carboxamide], the pIC50 was 6.40.

As for `C=C[C@@H]1C[C@]1(NC(=O)[C@@H]1C[C@@]2(CN1C(=O)[C@@H](NC(=O)[C@@H](CC(=O)N1CCCCC1)C(C)(C)C)C(C)(C)C)C(C)(C)C21CCC1)C(=O)NS(=O)(=O)C1CC1` [Compound 60, (5R,8S)-N-{(1R,2S)-1-[(cyclopropylsulfonyl)carba-moyl]-2-vinylcyclopropyl}-7-[(2S)-2-{[(2S)-3,3-dimethyl-2-(2-oxo-2-piperidin-1-ylethyl)butanoyl]amino}-3,3-dimethylbutanoyl]-10,10-dimethyl-7-azadispiro[3.0.4.1]decane-8-carboxamide], the pIC50 is 6.70.

Consider `C=C[C@@H]1C[C@]1(NC(=O)[C@@H]1C[C@@]2(CN1C(=O)[C@@H](NC(=O)[C@@H](CC(=O)N(C)C)C(C)(C)C)C(C)(C)C)C(C)(C)C21CCC1)C(=O)NS(=O)(=O)C1CC1` [Compound 65, (2S)-2-tert-butyl-N1-[(1S)-1-{[(5R,8S)-8-({(1R,2S)-1-[(cyclopropylsulfonyl)carba-moyl]-2-vinylcyclopropyl}carbamoyl)-10,10-dimethyl-7-azadispiro[3.0.4.1]dec-7-yl]carbonyl}-2,2-dimethylpropyl]-N4,N4-dimethylsuccinamide], for which the pIC50 was 7.15.
